Assays:
[1] = tested on: GAL4-MEF2C fusion protein; assay: pG5E1b-luciferase (Gal-luc) reporter with GAL-MEF2C (complete open reading frame) in cardiomyocytes; format: cell-based, rat; settings: for block of activation of GAL-MEF2C by PE: cardiomyocytes stimulated with PE
Description: FIG. 12A, FIG. 12B and FIG. 12C. CaM kinase and MAP kinase target different domains of MEF2. Primary neonatal rat cardiomyocytes in serum-free medium were transiently transfected with the indicated expression plasmids and luciferase activity was determined in cell extracts. FIG. 12A, cells were stimulated with PE (10 uM) or 10% FBS, as indicated, and expression of the MEF2-dependent reporter, 3×MEF2-luciferase, was assayed. FIG. 12B, cells transiently transfected with pG5E1b-luciferase (Gal-luc) and GAL-MEF2C were stimulated with PE, as in FIG. 12A, in the presence of KN62 or SB202190, as indicated. FIG. 12C, cells were transiently transfected with pG5E1b-luciferase and GAL-MEF2C (left panel) or GAL-MEF2C-ΔN (right panel) along with activated CaMKIV and MKK6, as indicated.

[2] = tested on: MEF2; assay: MEF2 DNA binding activity in stimulated cardiomyocytes; format: cell-based, rat; settings: cardiomyocytes stimulated with PE or FBS
[3] = tested on: GAL4-MEF2C fusion protein; assay: GAL4-dependent reporter with GAL4 fused to the C-terminus of MEF2C (transcription activation domains) in cardiomyocytes; format: cell-based; settings: stimulation of cardiomyocytes
Excerpt: FIG. 6. Phenylephrine induces MEF2C transcriptional activity through a CaMK-dependent pathway. Cardiomyocytes were transiently transfected with expression vectors encoding GAL4-MEF2C and a GAL4-dependent reporter gene in the presence and absence of PE and the CaMK inhibitor KN-93.
In light of the ability of MEF2 to respond to calcium-dependent signal transduction pathways in T cells, the inventors have investigated whether the same pathways also activate MEF2 in cardiomyocytes. […] When the C-terminus of MEF2C, which contains the transcription activation domains (TADs), but lacks the MADS and MEF2 domains required for DNA binding and dimerization, is fused to the DNA binding domain of the yeast transcription factor GAL4, the resulting GAL4-MEF2C fusion protein retains sensitivity to calcineurin and CaMKIV (FIG. 5). This GAL4-MEF2C fusion protein is also activated by stimulation of cardiomyocytes with the hypertrophic agonist phenylephrine (PE) (FIG. 6).

[4] = tested on: MEF2; assay: 3×MEF2-luciferase MEF2-dependent reporter in transiently transfected primary neonatal rat cardiomyocytes; format: cell-based
Description: To determine whether MEF2 was a target for hypertrophic signaling in cardiomyocytes, the inventors tested whether hypertrophy in response to phenylephrine (PE) and fetal bovine serum (FBS) activated a MEF2-dependent reporter (3×MEF2-luciferase), containing three MEF2 binding sites.

SMILES	block of activation of GAL-MEF2C by PE [1]	amount of MEF2 DNA binding activity [2]	activation of GAL4-MEF2C fusion protein (C-terminus of MEF2C) [3]	activation of a reporter containing a mutant MEF2 site ([4]; cardiomyocytes, PE or FBS)	activation of MEF2-dependent reporter (3×MEF2-luciferase) ([4]; primary neonatal rat cardiomyocytes, serum-free medium, PE 10 uM or 10% FBS)	activity of GAL4-MEF2C fusion protein (complete open reading frame of MEF2C) ([1]; cardiomyocytes, PE or FBS)
Oc1ccc(-c2nc(-c3ccncc3)c(-c3ccc(F)cc3)[nH]2)cc1 [SB202190]	partially blocked	–	–	–	–	–
CNC[C@H](O)c1cccc(O)c1 [PE, phenylephrine]	–	unchanged	activated	not a reporter containing a mutant MEF2 site	stimulated the MEF2 reporter	stimulated activity
CN([C@@H](Cc1ccc(OS(=O)(=O)c2cccc3cnccc23)cc1)C(=O)N1CCN(c2ccccc2)CC1)S(=O)(=O)c1cccc2cnccc12 [KN62]	partially blocked	–	–	–	–	–

— patent US6372957B1, “Transgenic mouse comprising a MEF2 binding site operatively linked to an indicator gene and methods of use” (Board of Regents, The University of Texas System, priority 1998, dated 2002)
